Tests used:
Experiment in all cases: Temocillin MIC with EDTA in the medium (Example 2)
Format in all cases: cell-based, Enterobacteriaceae
Details in all cases: Ex 2, MIC in mg/l
OXA-48 strains = test system: OXA-48 strains
Description: (§1) Optimization of the Detection Specificity by Introducing Specific Inhibitors Inhibition of Class B Strains (NDM, VIM, IMP) by Adding EDTA
(§2) Identical to that used to determine the temocillin MICs by agar dilution (example 1).
(§3) For each temocillin concentration, the following concentrations of active EDTA will be tested in the form of disodium EDTA: 0, 1.77, 2.12, 2.47 and 2.83 mmol/l.
(§4) Method: identical to the method used in example 1.

KPC strains = test system: KPC strains
Description: as §1, §2, §3, §4

IMP strains = test system: IMP strains
Description: as §1, §2, §3, §4

CO[C@@]1(NC(=O)C(C(=O)O)c2ccsc2)C(=O)N2[C@@H](C(=O)O)C(C)(C)S[C@@H]21 (stereo partly drawn) [temocillin]
0: No. of OXA-48 strains with MIC 150 (OXA-48 strains; 0 mmol/l of EDTA) | No. of OXA-48 strains with MIC 200 (OXA-48 strains; 0 mmol/l of EDTA) | No. of OXA-48 strains with MIC ≦50 (OXA-48 strains; 0 mmol/l of EDTA) | No. of OXA-48 strains with MIC 150 (OXA-48 strains; 1.77 mmol/l of active EDTA) | No. of OXA-48 strains with MIC 200 (OXA-48 strains; 1.77 mmol/l of active EDTA) | No. of OXA-48 strains with MIC 300 (OXA-48 strains; 1.77 mmol/l of active EDTA) | No. of OXA-48 strains with MIC ≦50 (OXA-48 strains; 1.77 mmol/l of active EDTA) | No. of OXA-48 strains with MIC 150 (OXA-48 strains; 2.12 mmol/l of active EDTA) | No. of OXA-48 strains with MIC 200 (OXA-48 strains; 2.12 mmol/l of active EDTA) | No. of OXA-48 strains with MIC 300 (OXA-48 strains; 2.12 mmol/l of active EDTA) | No. of OXA-48 strains with MIC ≦50 (OXA-48 strains; 2.12 mmol/l of active EDTA) | No. of OXA-48 strains with MIC 150 (OXA-48 strains; 2.47 mmol/l of active EDTA) | No. of OXA-48 strains with MIC 200 (OXA-48 strains; 2.47 mmol/l of active EDTA) | No. of OXA-48 strains with MIC ≦50 (OXA-48 strains; 2.47 mmol/l of active EDTA) | No. of OXA-48 strains with MIC 200 (OXA-48 strains; 2.83 mmol/l of active EDTA) | No. of KPC strains with MIC 150 (KPC strains; 0 mmol/l of EDTA) | No. of KPC strains with MIC 200 (KPC strains; 0 mmol/l of EDTA) | No. of KPC strains with MIC 300 (KPC strains; 0 mmol/l of EDTA) | No. of KPC strains with MIC 150 (KPC strains; 1.77 mmol/l of active EDTA) | No. of KPC strains with MIC 200 (KPC strains; 1.77 mmol/l of active EDTA) | No. of KPC strains with MIC 300 (KPC strains; 1.77 mmol/l of active EDTA) | No. of KPC strains with MIC 150 (KPC strains; 2.12 mmol/l of active EDTA) | No. of KPC strains with MIC 200 (KPC strains; 2.12 mmol/l of active EDTA) | No. of KPC strains with MIC 300 (KPC strains; 2.12 mmol/l of active EDTA) | No. of KPC strains with MIC 150 (KPC strains; 2.47 mmol/l of active EDTA) | No. of KPC strains with MIC 200 (KPC strains; 2.47 mmol/l of active EDTA) | No. of KPC strains with MIC 300 (KPC strains; 2.47 mmol/l of active EDTA) | No. of KPC strains with MIC 150 (KPC strains; 2.83 mmol/l of active EDTA) | No. of KPC strains with MIC 200 (KPC strains; 2.83 mmol/l of active EDTA) | No. of KPC strains with MIC 300 (KPC strains; 2.83 mmol/l of active EDTA) | No. of KPC strains with MIC >300 (KPC strains; 2.83 mmol/l of active EDTA) | No. of IMP strains with MIC 150 (IMP strains; 0 mmol/l of EDTA) | No. of IMP strains with MIC 200 (IMP strains; 0 mmol/l of EDTA) | No. of IMP strains with MIC 300 (IMP strains; 0 mmol/l of EDTA) | No. of IMP strains with MIC 150 (IMP strains; 1.77 mmol/l of active EDTA) | No. of IMP strains with MIC 200 (IMP strains; 1.77 mmol/l of active EDTA) | No. of IMP strains with MIC 300 (IMP strains; 1.77 mmol/l of active EDTA) | No. of IMP strains with MIC 150 (IMP strains; 2.12 mmol/l of active EDTA) | No. of IMP strains with MIC 200 (IMP strains; 2.12 mmol/l of active EDTA) | No. of IMP strains with MIC 300 (IMP strains; 2.12 mmol/l of active EDTA)
2: No. of OXA-48 strains with MIC 300 (OXA-48 strains; 2.47 mmol/l of active EDTA)
1: No. of OXA-48 strains with MIC 150 (OXA-48 strains; 2.83 mmol/l of active EDTA) | No. of KPC strains with MIC >300 (KPC strains; 0 mmol/l of EDTA) | No. of KPC strains with MIC >300 (KPC strains; 1.77 mmol/l of active EDTA) | No. of KPC strains with MIC >300 (KPC strains; 2.12 mmol/l of active EDTA) | No. of KPC strains with MIC >300 (KPC strains; 2.47 mmol/l of active EDTA) | No. of IMP strains with MIC >300 (IMP strains; 0 mmol/l of EDTA) | No. of IMP strains with MIC >300 (IMP strains; 1.77 mmol/l of active EDTA)
3: No. of OXA-48 strains with MIC 300 (OXA-48 strains; 0 mmol/l of EDTA) | No. of OXA-48 strains with MIC 300 (OXA-48 strains; 2.83 mmol/l of active EDTA) | No. of OXA-48 strains with MIC ≦50 (OXA-48 strains; 2.83 mmol/l of active EDTA)
8: No. of OXA-48 strains with MIC >300 (OXA-48 strains; 2.83 mmol/l of active EDTA)
18: No. of KPC strains with MIC ≦50 (KPC strains; 0 mmol/l of EDTA) | No. of KPC strains with MIC ≦50 (KPC strains; 1.77 mmol/l of active EDTA) | No. of KPC strains with MIC ≦50 (KPC strains; 2.12 mmol/l of active EDTA) | No. of KPC strains with MIC ≦50 (KPC strains; 2.47 mmol/l of active EDTA)
15: No. of OXA-48 strains with MIC >300 (OXA-48 strains; 1.77 mmol/l of active EDTA) | No. of OXA-48 strains with MIC >300 (OXA-48 strains; 2.12 mmol/l of active EDTA)
12: No. of OXA-48 strains with MIC >300 (OXA-48 strains; 0 mmol/l of EDTA) | No. of IMP strains with MIC ≦50 (IMP strains; 0 mmol/l of EDTA) | No. of IMP strains with MIC ≦50 (IMP strains; 1.77 mmol/l of active EDTA)
19: No. of KPC strains with MIC ≦50 (KPC strains; 2.83 mmol/l of active EDTA)
13: No. of OXA-48 strains with MIC >300 (OXA-48 strains; 2.47 mmol/l of active EDTA)

Reference: patent publication US9562899B2, “Method of detecting OXA-048 carbapenemase producing bacteria” (BIOMÉRIEUX, priority 2012, dated 2017)
